Data: ChEMBL document CHEMBL1268971, “4,5-Dihydro-1H-pyrazolo[4,3-h]quinazolines as potent and selective Polo-like kinase 1 (PLK1) inhibitors” (Bioorg Med Chem Lett, 2010)
The source made the active and inactive calls. The calls are words filed in the database; no cut-off is given here.

How the values were obtained:
Mus musculus = test: Toxicity in CD1 mouse xenografted with human HCT116 cells assessed as reversible body weight loss at 60 mg/kg, po daily administered on day 1, 2, 3 post-implantation in weekly schedule of 2 cycles; conditions: in vivo
[1] = AUC (0 to infinity) in CD1 mouse at 10 mg/kg, iv administered as single dose by LC/MS/MS analysis; assay type: ADME, organism-based; set-up: time infinity, dose 10 mg/kg, route intravenous; conditions: plasma
A2780 = test: Antiproliferative activity against […] human A2780 cells after 72 hrs by CellTiter-Glo assay; assay type: functional, cell-based; conditions: A2780, 72 h
[2] = Terminal half life in CD1 mouse at 10 mg/kg, iv administered as single dose by LC/MS/MS analysis; assay type: ADME, organism-based; set-up: dose 10 mg/kg, route intravenous; conditions: in vivo, read-out: beta t1/2 (converted)
PANC-1 = test: Antiproliferative activity against human PANC1 cells after 72 hrs by CellTiter-Glo assay; assay type: functional, cell-based; conditions: PANC-1, 72 h
[3] = Cmax in CD1 mouse at 10 mg/kg, po administered as single dose by LC/MS/MS analysis; assay type: ADME, organism-based; set-up: dose 10 mg/kg, route oral; conditions: in vivo
U2OS [4] = test: Induction of cell cycle arrest in human U2OS cells assessed as pSer46 TCTP signal inhibition of after 1 hr by array scan assay; assay type: functional, cell-based
[5] = target: Serine/threonine-protein kinase PLK3 (Homo sapiens, UniProt Q9H4B4); test: Inhibition of PLK3
Serine/threonine-protein kinase PLK3, sequence (Q9H4B4 whole entry): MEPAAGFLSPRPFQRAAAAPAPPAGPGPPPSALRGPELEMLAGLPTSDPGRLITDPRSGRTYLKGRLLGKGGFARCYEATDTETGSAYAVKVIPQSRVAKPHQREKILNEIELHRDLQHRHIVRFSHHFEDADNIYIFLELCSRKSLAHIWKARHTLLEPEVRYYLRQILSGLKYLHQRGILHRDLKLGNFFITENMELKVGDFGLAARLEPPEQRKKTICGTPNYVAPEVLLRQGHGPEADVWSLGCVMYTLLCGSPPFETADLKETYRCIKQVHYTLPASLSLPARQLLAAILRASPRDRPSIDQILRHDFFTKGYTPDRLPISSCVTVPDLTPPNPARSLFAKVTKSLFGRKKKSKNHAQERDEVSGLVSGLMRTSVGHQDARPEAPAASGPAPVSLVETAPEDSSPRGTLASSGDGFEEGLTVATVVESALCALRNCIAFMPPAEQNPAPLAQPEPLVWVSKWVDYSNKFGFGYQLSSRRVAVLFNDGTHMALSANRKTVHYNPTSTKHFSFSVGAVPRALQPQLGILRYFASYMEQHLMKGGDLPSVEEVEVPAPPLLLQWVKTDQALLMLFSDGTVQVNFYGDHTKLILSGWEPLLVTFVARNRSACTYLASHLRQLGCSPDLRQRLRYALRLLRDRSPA

HCT-116 = test: Induction of cell cycle arrest in human HCT116 cells assessed as accumulation at G2/M phase at 0.005 to 0.5 uM after 24 hrs; assay type: functional, cell-based
[6] = Permeability of the compound by PAMPA; assay type: ADME
[7] = Volume of distribution at steady state in CD1 mouse at 10 mg/kg, iv administered as single dose by LC/MS/MS analysis; assay type: ADME, organism-based; set-up: dose 10 mg/kg, route intravenous; conditions: in vivo, read-out: Vdss
[8] = Antiproliferative activity against human A2780/ADR cells after 72 hrs by CellTiter-Glo assay; assay type: functional, cell-based
[9] = target: Cyclin-dependent kinase 2/cyclin A (Homo sapiens, UniProt P24941); test: Inhibition of CDK2/Cyclin A; assay type: protein-complex assay
[10] = Intrinsic clearance in human liver microsomes; assay type: ADME, Microsome
[11] = Solubility of the compound at 105 Tween 80; assay type: physicochemical
[12] = Clearance in CD1 mouse at 10 mg/kg, iv administered as single dose by LC/MS/MS analysis; assay type: ADME, organism-based; set-up: dose 10 mg/kg, route intravenous; conditions: in vivo
U2OS [13] = test: Induction of cell cycle arrest in human U2OS cells assessed as accumulation of pSer10 histone H3-positive cells at 260 nM after 24 hrs by array scan assay

AUC(0-inf) [1]: 4.97 µM·h
IC50 (A2780): 0.021 µM
half-life [2]: 55.2 min
IC50 (PANC-1): 0.126 µM
Cmax [3]: 290 nM
IC50 (U2OS [4]): 0.095 µM
IC50 [5]: 1.44 µM
Papp [6]: 50 ×10⁻⁶ cm/s
Vd [7]: 3.39 L/kg
IC50 [9]: > 10 µM
CLint scaled [10]: 25.7 mL/min/kg
solubility [11]: > 3200 µg/mL
clearance [12]: 70.2 mL/min/kg
Structure (SMILES): CN1CCN(c2ccc(OC(F)(F)F)c(Nc3ncc4c(n3)-c3c(c(C(N)=O)nn3C)CC4)c2)CC1
Activity (Mus musculus): 13%
Activity (HCT-116): Active
IC50 [8]: 0.051 µM
Activity (U2OS [13]): 20%
